{
  "source": "ChEMBL document CHEMBL5729003",
  "about": "“Dihydropyrimidine compounds and uses thereof in medicine” (2022)",
  "experiment": "Old liquid medium can be removed and replaced with new medium (200 μL) on day 0.Formulating the compound and treating the cells in the experiment of anti virus: the compound was dissolved in DMSO to a concentration of 30 mM, and then the compound solution was diluted with DMSO to a concentration of […], and then eight dilutions at 4 fold were performed, the highest concentration is 800 μM. The serial diluted compound was added to the above plate at 1 μL per well, the highest final concentration in the experiment is 4 μM (200 fold dilution). TDF (tenofovir dipiroxil fumarate, Selleck, Cat S1400) has a highest concentration of 4 μM as a positive control. […] at a final concentration of 0.5%, TDF was added in to the positive control well at a final concentration of 1 μM.Detection of Viral Genomic DNA by qPCRPrimer: HBV-For-202, […]; HBV-Rev-315, […]. Copies of virus can be calculated using a standard curve plotted by using plasmid containing HBV genome and using SYBR Premix Ex Taq II Takara DRR081S kit and 1 μL cell culture supernatant as a template. EC50 values of the compound on viral replication were calculated by a four parametric nonlinear regression model using Graphpad Prism 5 software to manage concentration—viral copy number.",
  "settings": "HepG2.2.15",
  "data": [
    {"smiles": "COC[C@@H]1[C@H]2CN(c3ccc(C(C)(C)OC=O)cc3)C(=O)N2CCN1CC1=C(C(=O)OC)[C@H](c2ccc(F)cc2Cl)N=C(c2nccs2)N1", "values": [
      {"measurement": "EC50", "result": 5, "unit": "nM"}
    ]}
  ]
}
